The text below walks through data of PMC11939078, “TAK-994 mechanistic investigation into drug-induced liver injury” (Toxicological Sciences, 2025).

Like-named read-outs stand apart in the source and are kept apart here. Some results are limits rather than exact numbers.

Data set [1] is described as follows: HepG2 Glu/Gal 24-h cytotoxicity (mitochondrial toxicity). The format is cell-based, human. The note with it: human, HepG2 cells. As for the experimental part: (§1) Cytotoxicity of TAK-994 was evaluated in glucose or galactose medium after 24 h and in glucose medium after 72 h in HepG2 cells, with cryopreserved HepG2 cells thawed and seeded onto assay plates at 5,000 cells/well in glucose or galactose medium for the 24-h assay and at 2,500 cells/well in glucose medium for the 72-h assay. After ∼24 h of incubation at 37 °C in 5% CO2, the cells were incubated with test solutions under the same conditions for 24 h for the plate with 5,000 cells/well or 72 h for the plate with 2,500 cells/well. Cytotoxicity of TAK-994 was also assessed using HepG2 cells with CYP3A4 overexpression using a lentivirus vector. HepG2/CYP3A4 cells were incubated in media containing TAK-994 (0.09 to 200 μM), positive control aflatoxin B1 (0.04 to 80 μM), or 1.0% DMSO (negative control). In both cytotoxicity assays, adenosine triphosphate (ATP) content was assessed after incubation using a commercial luminescence assay (CellTiter-Glo; Promega Co., Ltd, WI, United States).
HepG2 cells (American Type Culture Collection [ATCC, VA, USA]) were acclimated to Dulbecco's Modified Eagle Medium (DMEM; Thermo Fisher Scientific, MA, USA) with either high glucose or high galactose and containing 10% FBS for 1 week then cryopreserved. […] After the incubation, CellTiter-Glo® (Promega Co., Ltd., WI, USA) was added to the assay plates, cells were incubated for 30 minutes, and luminescence was recorded to measure the ATP content using an EnVision plate reader (PerkinElmer Co., Ltd., MA, USA). The test compound TAK-994 was evaluated at concentrations of 0.046, 0.14, 0.41, 1.2, 3.7, 11, 33, and 100 μM. Positive controls rotenone and staurosporine were purchased from FUJIFILM Wako Pure Chemical Corporation (Osaka, Japan) and evaluated at concentrations of 0.046, 0.14, 0.41, 1.2, 3.7, 11, 33, and 100 μM in DMSO (rotenone) or 0.0046, 0.014, 0.041, 0.12, 0.37, 1.1 , 3.3, and 10 μM in DMSO (staurosporine). […]

A short description of data set [2]: HepG2 72-h cytotoxicity assay (glucose medium, ATP content). The class given is cell-based, human. The note with it: human, HepG2 cells. As for the experimental part:
as §1
HepG2 cells (American Type Culture Collection [ATCC, VA, USA]) were acclimated to Dulbecco's Modified Eagle Medium (DMEM; Thermo Fisher Scientific, MA, USA) with either high glucose or high galactose and containing 10% FBS for 1 week then cryopreserved. The cryopreserved HepG2 cells were thawed, cultured for 24 hours, then seeded at 5000 cells/well in glucose or galactose medium for the 24-hour assay and at 2500 cells/well in glucose medium for the 72-hour assay onto the assay plates. After approximately 24 hours of incubation at 37°C in 5% CO2, the cells were incubated with test solutions under the same conditions for 24 hours for the plate with 5000 cells/well or 72 hours for the plate with 2500 cells/well. After the incubation, CellTiter-Glo® (Promega Co., Ltd., WI, USA) was added to the assay plates, cells were incubated for 30 minutes, and luminescence was recorded to measure the ATP content using an EnVision plate reader (PerkinElmer Co., Ltd., MA, USA). The test compound TAK-994 was evaluated at concentrations of 0.046, 0.14, 0.41, 1.2, 3.7, 11, 33, and 100 μM. Positive controls rotenone and staurosporine were purchased from FUJIFILM Wako Pure Chemical Corporation (Osaka, Japan) and evaluated at concentrations of 0.046, 0.14, 0.41, 1.2, 3.7, 11, 33, and 100 μM in DMSO (rotenone) or 0.0046, 0.014, 0.041, 0.12, 0.37, 1.1 , 3.3, and 10 μM in DMSO (staurosporine). Two experiments were conducted at each concentration.
Inhibition rate (%) = (1-mean of sample values / mean of Max values) × 100, where Max values = vehicle control.

Data set [3] deals with human liver microtissues. Kind of data set: Human liver microtissue (co-culture) cytotoxicity, cellular ATP. The class given is cell-based. The note with it: for detection of hepatotoxicity by HepG2 72-h / human liver microtissue assays: retrospective application. Here is the method:
(§2) Toxicology of TAK-994 was assessed using lnSphero’s 3D lnSight Human Liver models, based on N-acetyl-L-cysteine causality assay, glutathione depletion assay, and lipopolysaccharide (LPS)-sensitization assay. Hepatotoxicity was assessed in 7- and 14-day mono and co-culture models, in which cells were exposed to TAK-994 (0.1, 0.3, 1, 3.16, 10, 31.6, or 100 μM) […].
(§3) The test system was Human 3D InSight Liver Models, production ID hLiMT_589, cryopreserved primary human hepatocytes (Lot IPDH_18; single donor) in monoculture or in co-culture with cryopreserved primary human nonparenchymal cells (Lot IPHN_17; single donor). Human liver microtissues are composed of roughly 1000 hepatocytes and 1000 non-parenchymal live cells. Non-parenchymal liver cell fractions are expected to be composed of Kupffer cells and liver endothelial cells however, these were not identified.
The culture medium was 3D InSight Human Liver Maintenance Medium TOX (Catalogue No. CS-07-001, InSphero). The treated cells in 96-well Akura™ plates were incubated in a humidified cell culture incubator (37°C, 5% CO2).
(§4) Mono and co-culture model cells were exposed to TAK-994 (0.1, 0.3, 1, 3.16, 10, 31.6, or 100 μM in 0.5% DMSO) for 7 days (TAK-994 administered on Days 0 and 4) or 14 days (TAK-994 administered on Days 0, 5, and 9). Six replicates were tested for each condition. The vehicle control was 0.5% DMSO, and the positive control was chlorpromazine (0.1, 0.3, 1, 3.16, 10, 31.6, or 100 μM in DMSO). Cellular ATP content was measured in the cell lysate on Days 7 or 14 of treatment. LDH release was measured in the cell supernatant on Days 4 and 7 or on Days 5, 9, and 14 and normalized to lysed controls.
(§5) Intracellular ATP content in model lysates was measured with the CellTiter-Glo® 2.0 Cell Viability Assay (Catalogue No. G9243, Promega). The Bioluminescent LDH Release Toxicity Assay Kit (Catalogue No. J2380, Promega) was used to assess extracellular LDH release and normalized to lysed controls. ATP, LDH, GSH, and triglycerides were measured according to internal technical operating procedures.

Another data set concerns human hepatocytes. Further details: method as in Thompson et al. 2012. The note with it: ref Thompson et al. 2012; cited from earlier work.
The test system of data set [4] is human liver microtissues + FFA. In words: Hepatotoxicity in steatosis liver model (free fatty acids). The class given is cell-based. The note with it: Homo sapiens, 336 h; free fatty acids added to medium; read-out: IC50, co-culture (14 days) + FFA (Fig. 3A). As for the experimental part:
as §4, with “for” for “for 7 days (TAK-994 administered on Days 0 and 4) or”, “9). The cell culture medium was supplemented with free fatty acids of 100 μM of Oleic acid and 66 μM of Palmitic acid.” for “9).”, “Day” for “Days 7 or”, “Days” for “Days 4 and 7 or on Days”, “controls. Cellular triglyceride content was measured in the microtissues on Day 14.” for “controls.”
as §5

Another data set concerns Hepatocyte spheroids. Kind of data set: Hepatocyte spheroid (monoculture, no nonparenchymal cells) cytotoxicity, cellular ATP. The format is cell-based, human. The note with it: Homo sapiens, Hepatocyte; cellular ATP; read-out: IC50, hepatocyte spheroids (Fig. 2B). Here is the method: as §2, §3, §4, §5
Data set [5] deals with human liver microtissues. In words: Glutathione depletion (BSO) assay in liver microtissues. The format is cell-based. As for the experimental part: as §2
Co-culture model cells were pretreated with BSO (150 μM in DMSO) and then exposed to TAK-994 (0.1, 0.3, 1, 3.16, 10, 31.6, or 100 μM in 0.5% DMSO) in the presence and absence of BSO for 14 days (during the treatment period, TAK-994 with or without BSO was administered on Days 0, 5, and 9). Six replicates were tested for each condition. The vehicle control was 0.5% DMSO and the positive control was acetaminophen (0.6, 1.25, 2.5, or 5 mM in Medium TOX). Cellular ATP content was measured in the cell lysate on Day 14 of treatment. LDH release was measured on Days 5, 9, and 14 in the cell supernatant. For cells administered BSO alone, cellular ATP content was also measured on Day 3 and LDH release was also determined between Days 0 to 3. LDH measurements were normalized to lysed controls. Cellular GSH content was measured by GSH-Glo™ Glutathione Assay (Promega) on Days 0, 3, and 14 in the positive control group.
as §5

As for `COc1cccc([C@H]2O[C@H](CC(=O)N3CCC(CC(=O)O)CC3)C(=O)N(CC(C)(C)COC(C)=O)c3ccc(Cl)cc32)c1OC` [TAK-475], the IC50 at 24 h in data set [1] was > 100 µM. Moreover, in data set [2], the IC50 at 72 h was > 100 µM. In the data set on human liver microtissues [3] (Homo sapiens, 336 h, read-out: Liver microtissue toxicity for 14 days IC50), the IC50 worked out at 58.6 µM. The “detection of hepatotoxicity by HepG2 72-h / human liver microtissue assays” value in the data set with human liver microtissues [3] is recorded as “detected”.

As for `Cc1c(C(=O)NN2CCCCC2)nn(-c2ccc(Cl)cc2Cl)c1-c1ccc(Cl)cc1` [rimonabant], the “CVB of marketed drugs without high risk of hepatotoxicity” value in the data set on human hepatocytes is given as “elevated CVB”.

Turning to `CN(C)CCCN1c2ccccc2Sc2ccc(Cl)cc21` [Chlorpromazine, chlorpromazine, reference compound], the IC50 was 8.35 µM in data set [4]; 9.26 µM in the data set on Hepatocyte spheroids; 6.16 µM with human liver microtissues [3] (Homo sapiens, 336 h, without FFA, read-out: IC50, co-culture (14 days) (Fig. 3A)); 7.64 µM in the data set with human liver microtissues [3] (Homo sapiens, cellular ATP, read-out: IC50, liver microtissues (Fig. 2B)).

Consider `CC(=O)Nc1ccc(O)cc1` [acetaminophen, reference compound], for which the “sensitization of liver microtissues by buthionine sulfoximine depletion” value in the data set with human liver microtissues [5] is recorded as “induced liver microtissue sensitivity”.

Turning to `Cc1cc(OCCCS(C)(=O)=O)cc(C)c1-c1cccc(COc2ccc3c(c2)OC[C@H]3CC(=O)O)c1` [TAK-875], the IC50 at 24 h in data set [1] was > 100 µM. Besides, the IC50 at 72 h in data set [2] is > 100 µM. In the data set on human liver microtissues [3] (read-out: Liver microtissue toxicity for 14 days IC50), the IC50 was determined as 12.7 µM. Also, the “detection of hepatotoxicity by HepG2 72-h / human liver microtissue assays” value in the data set with human liver microtissues [3] was “detected”.
